Measured values: PubChem BioAssay AID2060510 (Molecular Pharmacology Branch, DTP, NCI, 2025)
pIC50: −log10 of the molar value.

System: 439559-082-T-J2-PDC spheroids viability
Assay: Anticancer human tumor 439559-082-T-J2-PDC patient-derived colon adenocarcinoma cell line growth inhibition [GQUAD]
Settings: for pIC50: curve of first compound; for viability, T/C: stronger effect = lower value
Method in brief: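 Viability of tumor cells grown as complex spheroids with endothelial and stromal cells, exposed to drug combinations. Top concentration at or near clinical Cmax (else 10 microM), diluted in half-log increments.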

[1] = second compound 0.0316 µM, first compound 0.0316 µM
[2] = second compound 0.0316 µM, first compound 0.1 µM
[3] = second compound 0.0316 µM, first compound 0.316 µM
[4] = second compound 0.0316 µM, first compound 1 µM
[5] = second compound 0.0316 µM, first compound 3.16 µM
[6] = second compound 0.0316 µM, first compound 10 µM
[7] = second compound 0.1 µM, first compound 0.0316 µM
[8] = second compound 0.1 µM, first compound 0.1 µM
[9] = second compound 0.1 µM, first compound 0.316 µM
[10] = second compound 0.1 µM, first compound 1 µM
[11] = second compound 0.1 µM, first compound 3.16 µM
[12] = second compound 0.1 µM, first compound 10 µM
[13] = second compound 0.316 µM, first compound 0.0316 µM
[14] = second compound 0.316 µM, first compound 0.1 µM
[15] = second compound 0.316 µM, first compound 0.316 µM
[16] = second compound 0.316 µM, first compound 1 µM
[17] = second compound 0.316 µM, first compound 3.16 µM
[18] = second compound 0.316 µM, first compound 10 µM
[19] = second compound 1 µM, first compound 0.0316 µM
[20] = second compound 1 µM, first compound 0.1 µM
[21] = second compound 1 µM, first compound 0.316 µM
[22] = second compound 1 µM, first compound 1 µM
[23] = second compound 1 µM, first compound 3.16 µM
[24] = second compound 1 µM, first compound 10 µM
[25] = second compound 3.16 µM, first compound 0.0316 µM
[26] = second compound 3.16 µM, first compound 0.1 µM
[27] = second compound 3.16 µM, first compound 0.316 µM
[28] = second compound 3.16 µM, first compound 1 µM
[29] = second compound 3.16 µM, first compound 3.16 µM
[30] = second compound 3.16 µM, first compound 10 µM
[31] = second compound 10 µM, first compound 0.0316 µM
[32] = second compound 10 µM, first compound 0.1 µM
[33] = second compound 10 µM, first compound 0.316 µM
[34] = second compound 10 µM, first compound 1 µM
[35] = second compound 10 µM, first compound 3.16 µM
[36] = second compound 10 µM, first compound 10 µM
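Note: spheroids exposed to the agents for 7 days before readout.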
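Throughout, for viability, T/C: percent of luminescence signal in DMSO vehicle wells taken as 100% viability.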

Cc1cccc(N(C)C(=O)C2C(O)CCN2c2nc(C)cc(C(F)(F)F)c2C#N)c1 (centres undefined) + Cc1[nH]c2ccc(F)cc2c1-c1nc2c3cccnc3c3ncccc3c2[nH]1
pIC50 (second compound 0.0316 µM): < 5.00
pIC50 (second compound 0.1 µM): < 5.00
pIC50 (second compound 0.316 µM): < 5.00
pIC50 (second compound 1 µM): < 5.00
pIC50 (second compound 3.16 µM): < 5.00
pIC50 (second compound 10 µM): < 5.00
viability, T/C [1]: 98.7%
viability, T/C [2]: 106%
viability, T/C [3]: 99.8%
viability, T/C [4]: 103%
viability, T/C [5]: 92.8%
viability, T/C [6]: 95.9%
viability, T/C [7]: 106%
viability, T/C [8]: 91.6%
viability, T/C [9]: 99.8%
viability, T/C [10]: 96.3%
viability, T/C [11]: 100%
viability, T/C [12]: 92.6%
viability, T/C [13]: 98.6%
viability, T/C [14]: 101%
viability, T/C [15]: 92.7%
viability, T/C [16]: 108%
viability, T/C [17]: 96.2%
viability, T/C [18]: 83.3%
viability, T/C [19]: 96.2%
viability, T/C [20]: 91.2%
viability, T/C [21]: 87.4%
viability, T/C [22]: 100%
viability, T/C [23]: 88.9%
viability, T/C [24]: 88.1%
viability, T/C [25]: 78.6%
viability, T/C [26]: 77.7%
viability, T/C [27]: 93.1%
viability, T/C [28]: 88.3%
viability, T/C [29]: 84.7%
viability, T/C [30]: 77%
viability, T/C [31]: 85.5%
viability, T/C [32]: 83.6%
viability, T/C [33]: 87.5%
viability, T/C [34]: 84.9%
viability, T/C [35]: 87%
viability, T/C [36]: 78.5%

CC1COCCN1c1cc(-c2ccnn2C)c2ccnc(-c3ccn[nH]3)c2n1 (centres undefined) + CN(C)c1ccc(Nc2c3ccc(NC(=O)CCN4CCCC4)cc3nc3cc(NC(=O)CCN4CCCC4)ccc23)cc1
pIC50 (second compound 0.0316 µM): 6.63
pIC50 (second compound 0.1 µM): 6.58
pIC50 (second compound 0.316 µM): 6.65
pIC50 (second compound 1 µM): 6.61
pIC50 (second compound 3.16 µM): 6.66
pIC50 (second compound 10 µM): 6.64
viability, T/C [1]: 97.9%
viability, T/C [2]: 72.7%
viability, T/C [3]: 41.9%
viability, T/C [4]: 34.6%
viability, T/C [5]: 35.3%
viability, T/C [6]: 28.8%
viability, T/C [7]: 104%
viability, T/C [8]: 74.4%
viability, T/C [9]: 43.1%
viability, T/C [10]: 32.9%
viability, T/C [11]: 30.9%
viability, T/C [12]: 21.5%
viability, T/C [13]: 97.1%
viability, T/C [14]: 80.7%
viability, T/C [15]: 36.7%
viability, T/C [16]: 30.3%
viability, T/C [17]: 30.2%
viability, T/C [18]: 24.2%
viability, T/C [19]: 89.6%
viability, T/C [20]: 89.1%
viability, T/C [21]: 39.5%
viability, T/C [22]: 34.3%
viability, T/C [23]: 32.6%
viability, T/C [24]: 26.4%
viability, T/C [25]: 90%
viability, T/C [26]: 75.1%
viability, T/C [27]: 38.9%
viability, T/C [28]: 28.6%
viability, T/C [29]: 30.1%
viability, T/C [30]: 28.8%
viability, T/C [31]: 92.9%
viability, T/C [32]: 75.8%
viability, T/C [33]: 40.4%
viability, T/C [34]: 27.8%
viability, T/C [35]: 37.1%
viability, T/C [36]: 25.1%
